In data set [1] the test system is cell surface GRP78. The experiment in a line: Paracrine apoptosis by CM from treated MEFs with GRP78 neutralizing antibody. It counts as cell-based. The following applies: CM from Par-4+/+ MEFs treated with 500 nM. Here is the method: FIGS. 4A and 4B are bar graphs illustrating percent cell surface GRP-78 expression and apoposis activity for an arylquinoline of the present disclosure. FIG. 4A is a bar graph showing cell surface GRP78 levels in cancer cells treated with CM from MEFs exposed to Arylquin 1. Par-4+/+ MEFs or Par-4−/− MEFs were treated with vehicle or Arylquin 1 (500 nM) for 24 h. The CM from these MEFs was incubated with the indicated cancer cells for 24 h. The cancer cells were then subjected to FACS analysis for cell surface GRP78 expression. Data shown represent mean values of three experiments±s.d. Asterisks (**) or (*) indicate statistical significance (P<0.0001) or (P<0.001), respectively, based on two-way ANOVA with data normality and equality of variance assumptions. […] After 24 h, the cancer cells were scored for apoptosis by ICC for active caspase-3. […]
See Hebbar, N., Wang, C. & Rangnekar, V. M. J Cell Phys 227, 3715-3721 (2012) and Shrestha-Bhattarai, T., Hebbar, N. & Rangnekar, V. M. Cancer Cell 24, 3-5 (2013). A total of three independent experiments were performed; and approximately 500 cells were scored in each experiment for apoptosis under a fluorescent microscope. Cell surface GRP78 expression on the cancer cell surface was quantified by FACS analysis in the Flow Cytometry Shared Resource Facility, Markey Cancer Center as previously described. […]

In data set [2] the test system is PC-3 cells. The data set can be described thus: Apoptosis, PC-3 cells. The data set is classed as cell-based, human. The following applies: 500 nM. As to the method: (§1) See Hebbar, N., Wang, C. & Rangnekar, V. M. J Cell Phys 227, 3715-3721 (2012) and Shrestha-Bhattarai, T., Hebbar, N. & Rangnekar, V. M. Cancer Cell 24, 3-5 (2013). A total of three independent experiments were performed; and approximately 500 cells were scored in each experiment for apoptosis under a fluorescent microscope. Cell surface GRP78 expression on the cancer cell surface was quantified by FACS analysis in the Flow Cytometry Shared Resource Facility, Markey Cancer Center as previously described. See Hebbar, N., Wang, C. & Rangnekar, V. M. J Cell Phys 227, 3715-3721 (2012).

For data set [3], the system named is normal HEL cells. The data set can be described thus: Apoptosis of normal cells in co-culture experiments. It counts as cell-based, human. To be noted: 500 nM. Here is the method: as §1
The test system of data set [4] is panel of lung tumor cells. The data set can be described thus: Par-4 secretion from lung tumor cells. It counts as cell-based.
Data set [5] has as its system mouse embryonic fibroblast (MEF) cells. The experiment in a line: Par-4 secretion from normal mouse fibroblasts (Western blot of conditioned medium). It counts as cell-based. As to the method: In another aspect, the subject technology provides assays for screening test compounds that interfere with vimentin binding to PAR-4 or which cause release of vimentin-bound PAR-4. In a typical assay, cells, such as HEL cells, are seeded onto an appropriate support, such as 60-mm plates containing supplemented growth medium (e.g., supplemented with 0.1% serum) at a desired confluency, such as 40-70% confluency, and treated with the test compound (e.g., 500 nM) or control vehicle. The cells are allowed to grow for a period of time, such as 24 hours, after which the conditioned medium (CM) is concentrated (e.g., concentrated 30× to 100 μl using Millipore tubes (Amicon Ultra centrifugal filters, Ultracel-10K) by 15 min centrifugation at 4500 rpm). The concentrated CM is then subjected to co-immunoprecipitation using detectably labeled PAR-4 and vimentin antibodies in the presence of various concentrations of purified PAR-4 and the precipitated proteins are resolved by SDS-PAGE and analyzed by Western blot analysis. The amount of immunoprecipitated PAR-4-vimentin complex is compared to that of control samples. For example, chemiluminescent signals may be quantified in the BIO-RAD Molecular Imager ChemiDoc XRS+Imaging system using Quantity One software. Induction of Par-4 secretion by the test drug (e.g., 500 nM), as judged by this Western blot analysis procedure, will indicate dissociation of Par-4 from vimentin. […] For such experiments, cells may be treated with the test drug (e.g., 500 nM) or vehicle for an appropriate period of time, such as 24 hours, and then cell lysates are prepared and subjected to immunoprecipitation using an appropriate amount of a Par-4 antibody, vimentin antibody or control IgG antibody by using any standard immunoprecipitation procedure. Following […], the complexes are resolved, preferably by Western blot analysis as described above. If the drug inhibits the binding of Par-4 to vimentin, it will be reflected in the lack of co-immunoprecipitation of Par-4 with the vimentin antibody, and co-immunoprecipitation of vimentin with the Par-4 antibody.
Co-Immunoprecipitation and Western blot analysis: Protein extracted from cell lysates was filtered, pre-cleared with 25 μL (bed volume) of protein G-Sepharose beads and immunoprecipitated with 1 μg of respective antibodies. The eluted proteins were resolved by SDS-PAGE, and subjected to Western blot analysis as described.
To identify Par-4 secretagogues, we synthesized and screened 3-arylquinolines as well as related quinolones and quinothiolones for the secretion of Par-4 protein from normal fibroblasts under conditions that are not toxic to the cells.
We screened representative members of each of these heterocyclic families on a compound-by-compound basis for the secretion of Par-4 protein from normal mouse fibroblasts under conditions that were not toxic to the cells. Initial expectations were that these heterocycles would serve as Nutlin-3a surrogates and inhibit MDM2, but studies reported herein established a completely different mechanism of action, reflecting that the structural dissimilarities between these heterocycles and Nutlin-3a outweighed the similarities that led to their initial selection for screening.

In data set [6] the test system is LNCaP. The experiment in a line: Apoptosis, LNCaP cells. To be noted: 500 nM. It counts as cell-based, human. Here is the method:
as §1

Data set [7] deals with diverse cancer cells (lung cancer A549, H460, LLC1, KP7B; prostate cancer PC-3 MM2, DU145, LNCaP). The experiment in a line: Apoptosis by ICC for active caspase-3, cancer cells. The data set is classed as cell-based, human, mouse. Here is the method:
Normal cells (MEFs, HELs, HBEC, PrE, prostate stromal cells PrS) or lung cancer cells (human A549 and H460, mouse LLC1 and KP7B) and prostate cancer cells (PC-3 MM2, DU145, LNCaP) were treated with the indicated amounts (0.5, 1 and 10 μM) of Arylquin 1 or vehicle (V) for 24 h, and apoptosis was determined by ICC for active caspase-3. Data shown represent mean values from three independent experiments±s.d. Asterisks (**) or (*) indicate statistical significance (P<0.0001) or (P<0.001), respectively, by the Student t test.
as §1

Each structure is given as a SMILES string. “Also recorded” adds a separate entry of the source.

Take `CN(C)c1ccc2cc(-c3ccccc3F)c(N)nc2c1` [Arylquin 1, 3-(2-fluorophenyl)-N^7,N^7-dimethylquinoline-2,7-diamine]: the “mediation of paracrine apoptosis” value in data set [1] is recorded as “mediated via cell surface GRP78”. Besides, the apoptosis result was “induced apoptosis” in data set [2]; “not in LNCaP or DU145 cells” in data set [6]; “induced the dose-dependent apoptosis in cancer cells” in data set [7] (0.5, 1 and 10 μM, 24 h). Also, in data set [3], the “apoptosis of normal cells in co-culture” value is on record as “not normal HEL cells”. The Par-4 secretion entry in data set [4] is reported as “failed to induce the secretion of Par-4”; in data set [5] (MEF cells) it was “dose-dependent secretion”. Also, in data set [5] (normal mouse fibroblasts, conditions not toxic to the cells), the “level of Par-4 secretion, structure-activity comparison among analogs” value is “most active; also recorded: highest levels of Par-4 secretion”. Further, the direct apoptosis entry in data set [7] (500 nM) was “did not directly induce apoptosis”.

The values are drawn from patent US9873670B2, “Arylquinoline and analog compounds and use thereof to treat cancer” (UNIVERSITY OF KENTUCKY RESEARCH FOUNDATION, priority 2013, dated 2018).
